US20210214375A1 (LUNDBECK LA JOLLA RESEARCH CENTER, INC., priority 2017, published 2021)

Legend:
MGLL = biological target: T1, MGLL (Mus musculus, UniProt O35678); assay: In vitro competitive activity-based protein profiling, mouse brain proteome; format: biochemical
T1 construct: Brain; from tissue; host or cells: mouse brain proteome
T1 sequence (O35678 1-303): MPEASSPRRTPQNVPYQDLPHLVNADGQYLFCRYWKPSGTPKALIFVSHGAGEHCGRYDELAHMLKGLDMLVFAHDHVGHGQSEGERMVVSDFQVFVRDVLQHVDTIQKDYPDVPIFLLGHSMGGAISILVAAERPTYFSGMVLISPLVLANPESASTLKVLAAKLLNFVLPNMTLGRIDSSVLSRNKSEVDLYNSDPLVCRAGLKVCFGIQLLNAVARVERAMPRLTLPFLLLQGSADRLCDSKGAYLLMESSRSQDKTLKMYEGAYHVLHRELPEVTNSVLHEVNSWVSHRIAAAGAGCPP
Experimental: [Worded in the source for another species; this species is reported under the same test.] (§1) Proteomes (human prefrontal cortex or cell membrane fractions) (50 μL, 1.0 mg/mL total protein concentration) were preincubated with varying concentrations of inhibitors at 37° C. After 30 min, FP—Rh or HT-01 (1.0 μL, 50 μM in DMSO) was added and the mixture was incubated for another 30 min at room temperature. Reactions were quenched with SDS loading buffer (15 μL-4×) and run on SDS-PAGE.

ABHD6 = biological target: T2, ABHD6 (Mus musculus, UniProt Q8R2Y0); assay: In vitro competitive activity-based protein profiling, mouse brain proteome, ABHD6; format: biochemical; conditions: for IC50: mouse
T2 construct: Brain; from tissue; host or cells: mouse brain proteome
T2 sequence (Q8R2Y0 1-336): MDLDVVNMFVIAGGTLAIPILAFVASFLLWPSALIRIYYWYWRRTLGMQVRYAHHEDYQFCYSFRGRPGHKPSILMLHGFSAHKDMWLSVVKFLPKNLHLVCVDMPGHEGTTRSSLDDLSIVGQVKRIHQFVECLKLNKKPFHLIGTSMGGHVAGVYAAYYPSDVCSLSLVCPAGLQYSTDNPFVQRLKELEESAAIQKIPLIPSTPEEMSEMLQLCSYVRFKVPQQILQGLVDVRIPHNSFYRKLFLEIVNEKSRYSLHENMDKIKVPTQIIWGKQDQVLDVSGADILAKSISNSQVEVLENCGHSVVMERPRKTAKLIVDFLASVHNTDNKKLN
Experimental: [Worded in the source for another target; this target is reported under the same test.] as §1

IC50 (MGLL) [nM] | IC50 (ABHD6) [nM] | SMILES | % Inh MGLL Brain (Mouse, μM) (MGLL) | % Inh ABHD6 Brain (Mouse, μM) (ABHD6; mouse brain proteome)
100 to 1000 | 100 to 1000 | O=C(OC(C(F)(F)F)C(F)(F)F)N1CC2(CCN(Cc3c(N4CC5COCC5C4)cccc3C(F)(F)F)CC2)C1 (stereo not shown) [Example 33] | – | –
< 100 | 100 to 1000 | O=C(OC(C(F)(F)F)C(F)(F)F)N1CCC2(CC1)CN(Cc1ccc(Cl)cc1N1CCCC1)C2 [Example 34] | – | –
< 100 | 100 to 1000 | O=C(OC(C(F)(F)F)C(F)(F)F)N1CCC2(CC1)CN(Cc1ccc(C(F)(F)F)cc1N1CCCCC1)C2 [Example 35] | – | –
< 100 | 100 to 1000 | O=C(OC(C(F)(F)F)C(F)(F)F)N1CCC2(CC1)CN(Cc1ccc(C(F)(F)F)cc1N1CCOCC1)C2 [Example 36, 1,1,1,3,3,3-Hexafluoropropan-2-yl 2-(2-morpholino-4-(trifluoromethyl)benzyl)-2,7-diazaspiro[3.5]nonane-7-carboxylate] | – | –
100 to 1000 | 100 to 1000 | O=C(OC(C(F)(F)F)C(F)(F)F)N1CCC2(CC1)CN(Cc1ccc(Cl)cc1N1CCCCC1)C2 [Example 38, 1,1,1,3,3,3-Hexafluoropropan-2-yl 2-(4-chloro-2-(piperidin-1-yl)benzyl)-2,7-diazaspiro[3.5]nonane-7-carboxylate] | – | –
< 100 | < 100 | O=C(OC(C(F)(F)F)C(F)(F)F)N1CC2(CCN(Cc3ccc(C(F)(F)F)cc3N3CCOCC3)CC2)C1 [Example 40, 1,1,1,3,3,3-Hexafluoropropan-2-yl 7-(2-morpholino-4-(trifluoromethyl)benzyl)-2,7-diazaspiro[3.5]nonane-2-carboxylate] | – | –
< 100 | 100 to 1000 | O=C(OC(C(F)(F)F)C(F)(F)F)N1CCC2(CC1)CN(Cc1c(Cl)cccc1N1CCCC1)C2 [Example 42, 1,1,1,3,3,3-Hexafluoropropan-2-yl 2-(2-chloro-6-(pyrrolidin-1-yl)benzyl)-2,7-diazaspiro[3.5]nonane-7-carboxylate] | – | –
< 100 | 100 to 1000 | O=C(OC(C(F)(F)F)C(F)(F)F)N1CCC2(CC1)CN(Cc1c(N3CCOCC3)cccc1C(F)(F)F)C2 [Example 43, 1,1,1,3,3,3-Hexafluoropropan-2-yl 2-(2-morpholino-6-(trifluoromethyl)benzyl)-2,7-diazaspiro[3.5]nonane-7-carboxylate] | – | –
< 100 | < 100 | O=C(OC(C(F)(F)F)C(F)(F)F)N1CCC2(CC1)CN(Cc1c(Cl)cccc1N1CCC(F)CC1)C2 [Example 47, 1,1,1,3,3,3-Hexafluoropropan-2-yl 2-(2-chloro-6-(4-fluoropiperidin-1-yl)benzyl)-2,7-diazaspiro[3.5]nonane-7-carboxylate] | – | –
< 100 | < 100 | O=C(OC(C(F)(F)F)C(F)(F)F)N1CCC2(CC1)CN(Cc1c(Cl)cccc1N1CCC3(CCOCC3)C1)C2 [Example 48, 1,1,1,3,3,3-Hexafluoropropan-2-yl 2-(2-chloro-6-(8-oxa-2-azaspiro[4.5]decan-2-yl)benzyl)-2,7-diazaspiro[3.5]nonane-7-carboxylate] | – | –
– | – | O=C(O)C1CCN(c2ccc(CN3CCC4(CC3)CN(C(=O)OC(C(F)(F)F)C(F)(F)F)C4)cc2)CC1 [Example 66, 1-(4-((2-(((1,1,1,3,3,3-Hexafluoropropan-2-yl)oxy)carbonyl)-2,7-diazaspiro[3.5]nonan-7-yl)methyl)phenyl) piperidine-4-carboxylic acid] | ## (## is between 25 and 75%) | ### (### is ≥ 75%)
< 100 | < 100 | O=C(OC(C(F)(F)F)C(F)(F)F)N1CCC2(CC1)CN(Cc1ccc(Cl)c(Cl)c1)C2 [Example 67, 1,1,1,3,3,3-Hexafluoropropan-2-yl 2-(3,4-dichlorobenzyl)-2,7-diazaspiro[3.5]nonane-7-carboxylate] | – | –
< 100 | < 100 | O=C(OC(C(F)(F)F)C(F)(F)F)N1CCC2(CC1)CN(Cc1cccc(Oc3ccccc3)c1)C2 [Example 78, 1,1,1,3,3,3-Hexafluoropropan-2-yl 2-(3-phenoxybenzyl)-2,7-diazaspiro[3.5]nonane-7-carboxylate] | – | –
< 100 | > 1000 | O=C(OC(C(F)(F)F)C(F)(F)F)N1CCC2(CC1)CN(Cc1ccc(N3CCCC3)cc1)C2 [Example 80, 1,1,1,3,3,3-Hexafluoropropan-2-yl 2-(4-(pyrrolidin-1-yl)benzyl)-2,7-diazaspiro[3.5]nonane-7-carboxylate] | – | –
< 100 | 100 to 1000 | O=C(OC(C(F)(F)F)C(F)(F)F)N1CCC2(CCCN2C(=O)c2ccc(C(F)(F)F)cc2)CC1 [Example 83, 1,1,1,3,3,3-Hexafluoropropan-2-yl 1-(4-(trifluoromethyl)benzoyl)-1,8-diazaspiro[4.5]decane-8-carboxylate] | – | –
< 100 | < 100 | Cc1cccc(CN2CC3(CCN(C(=O)OC(C(F)(F)F)C(F)(F)F)CC3)C2)c1 [Example 86, 1,1,1,3,3,3-Hexafluoropropan-2-yl 2-(3-methylbenzyl)-2,7-diazaspiro[3.5]nonane-7-carboxylate] | – | –
< 100 | < 100 | O=C(OC(C(F)(F)F)C(F)(F)F)N1CCC2(CC1)CN(Cc1cccc(C(F)(F)F)c1)C2 [Example 89, 1,1,1,3,3,3-Hexafluoropropan-2-yl 2-(3-(trifluoromethyl)benzyl)-2,7-diazaspiro[3.5]nonane-7-carboxylate] | – | –
100 to 1000 | 100 to 1000 | O=C(OC(C(F)(F)F)C(F)(F)F)N1CC2(CCN(Cc3c(N4CCCC4)cccc3C(F)(F)F)CC2)C1 [Example 148, 1,1,1,3,3,3-Hexafluoropropan-2-yl 7-(2-(pynrolidin-1-yl)-4-(trifluoromethyl)benzyl)-2,7-diazaspiro[3.5]nonane-2-carboxylate] | – | –
< 100 | < 100 | CC(=O)N1CCCc2cccc(CN3CCC4(CC3)CN(C(=O)OC(C(F)(F)F)C(F)(F)F)C4)c21 [Example 152, 1,1,1,3,3,3-Hexafluoropropan-2-yl 7-((1-acetyl-1,2,3,4-tetrahydroquinolin-8-yl)methyl)-2,7-diazaspiro[3.5]nonane-2-carboxylate] | – | –
100 to 1000 | > 1000 | CN1CC2(CCN(c3cc(Cl)ccc3CN3CCN(C(=O)OC(C(F)(F)F)C(F)(F)F)CC3)C2)C1 [Example 169, 1,1,1,3,3,3-Hexafluoropropan-2-yl 4-(4-chloro-2-(2-methyl-2,6-diazaspiro[3.4]octan-6-yl)benzyl)piperazine-1-carboxylate] | – | –
100 to 1000 | > 1000 | CCN1CCC2(CCN(c3cc(Cl)ccc3CN3CCN(C(=O)OC(C(F)(F)F)C(F)(F)F)CC3)CC2)C1 [Example 170, 1,1,1,3,3,3-Hexafluoropropan-2-yl 4-(4-chloro-2-(2-ethyl-2,8-diazaspiro[4.5]decan-8-yl)benzyl)piperazine-1-carboxylate] | – | –
100 to 1000 | > 1000 | CCN1CC2(CCN(c3cc(Cl)ccc3CN3CCN(C(=O)OC(C(F)(F)F)C(F)(F)F)CC3)C2)C1 [Example 173, 1,1,1,3,3,3-Hexafluoropropan-2-yl 4-(4-chloro-2-(2-ethyl-2,6-diazaspiro[3.4]octan-6-yl)benzyl)piperazine-1-carboxylate] | – | –
100 to 1000 | > 1000 | O=C(OC(C(F)(F)F)C(F)(F)F)N1CCC2(CCN(Cc3ccc(C(F)(F)F)cc3N3CC4COCC4C3)CC2)C1 (stereo not shown) [Example 188, 1,1,1,3,3,3-Hexafluoropropan-2-yl 8-(2-(tetrahydro-1H-furo[3,4-c]pyrrol-5(3H)-yl)-4-(trifluoromethyl)benzyl)-2,8-diazaspiro[4.5]decane-2-carboxylate] | – | –
